Measurements reported in US12404262B2 (priority 2021, dated 2025).

Conditions: 1.0% DMSO, 24-hour incubation at ambient temperature, maximum theoretical 100 μM; for pH 2 solubility: 0.1N HCl, first value of the cell; for pH 7 solubility: 1×PBS buffer (pH 7.4), second value of the cell

| SMILES | pH 2 solubility | pH 7 solubility |
| --- | --- | --- |
| CC(C)(C#Cc1ccc(-c2ccc(Cl)c3c(N(C(=O)OCCOCCOCCOCCOP(=O)(O)O)S(C)(=O)=O)nn(CC(F)(F)F)c23)c([C@H](Cc2cc(F)cc(F)c2)NC(=O)Cn2nc(C(F)(F)F)c3c2C(F)(F)[C@@H]2C[C@H]32)n1)S(C)(=O)=O [Compound 110, 2-(2-(2-(2-(phosphonooxy)ethoxy)ethoxy)ethoxy)ethyl (4-chloro-7-(2-((S)-1-(2-((3bS,4aR)-5,5-difluoro-3-(trifluoromethyl)-3b,4,4a,5-tetrahydro-1H-cyclopropa[3,4]cyclopenta[1,2-c]pyrazol-1-yl)acetamido)-2-(3,5-difluorophenyl)ethyl)-6-(3-methyl-3-(methylsulfonyl)but-1-yn-1-yl)pyridin-3-yl)-1-(2,2,2-trifluoroethyl)-1H-indazol-3-yl)(methylsulfonyl)carbamate] | 1 μM | 100 μM |
| CC(NC(=O)N(c1nn(CC(F)(F)F)c2c(-c3ccc(C#CC(C)(C)S(C)(=O)=O)nc3[C@H](Cc3cc(F)cc(F)c3)NC(=O)Cn3nc(C(F)(F)F)c4c3C(F)(F)[C@@H]3C[C@H]43)ccc(Cl)c12)S(C)(=O)=O)(C(=O)O)C(=O)O [Compound 52, 2-(3-(4-chloro-7-(2-((S)-1-(2-((3bS,4aR)-5,5-difluoro-3-(trifluoromethyl)-3b,4,4a,5-tetrahydro-1H-cyclopropa[3,4]cyclopenta[1,2-c]pyrazol-1-yl)acetamido)-2-(3,5-difluorophenyl)ethyl)-6-(3-methyl-3-(methylsulfonyl)but-1-yn-1-yl)pyridin-3-yl)-1-(2,2,2-trifluoroethyl)-1H-indazol-3-yl)-3-(methylsulfonyl)ureido)-2-methylmalonic acid] | 1 μM | 100 μM |
| CC(C)(C#Cc1ccc(-c2ccc(Cl)c3c(N(COC(=O)CCP(=O)(O)O)S(C)(=O)=O)nn(CC(F)(F)F)c23)c([C@H](Cc2cc(F)cc(F)c2)NC(=O)Cn2nc(C(F)(F)F)c3c2C(F)(F)[C@@H]2C[C@H]32)n1)S(C)(=O)=O [Compound 21, (3-((N-(4-chloro-7-(2-((S)-1-(2-((3bS,4aR)-5,5-difluoro-3-(trifluoromethyl)-3b,4,4a,5-tetrahydro-1H-cyclopropa[3,4]cyclopenta[1,2-c]pyrazol-1-yl)acetamido)-2-(3,5-difluorophenyl)ethyl)-6-(3-methyl-3-(methylsulfonyl)but-1-yn-1-yl)pyridin-3-yl)-1-(2,2,2-trifluoroethyl)-1H-indazol-3-yl)methylsulfonamido)methoxy)-3-oxopropyl)phosphonic acid] | 86 μM | 1 μM |
| CC(C)(C#Cc1ccc(-c2ccc(Cl)c3c(N(C(=O)OCCOCCOCCO)S(C)(=O)=O)nn(CC(F)(F)F)c23)c([C@H](Cc2cc(F)cc(F)c2)NC(=O)Cn2nc(C(F)(F)F)c3c2C(F)(F)[C@@H]2C[C@H]32)n1)S(C)(=O)=O [Compound 107, 2-(2-(2-hydroxyethoxy)ethoxy)ethyl (4-chloro-7-(2-((S)-1-(2-((3bS,4aR)-5,5-difluoro-3-(trifluoromethyl)-3b,4,4a,5-tetrahydro-1H-cyclopropa[3,4]cyclopenta[1,2-c]pyrazol-1-yl)acetamido)-2-(3,5-difluorophenyl)ethyl)-6-(3-methyl-3-(methylsulfonyl)but-1-yn-1-yl)pyridin-3-yl)-1-(2,2,2-trifluoroethyl)-1H-indazol-3-yl)(methylsulfonyl)carbamate] | 4 μM | 1 μM |
| CC(C)(C#Cc1ccc(-c2ccc(Cl)c3c(N(C(=O)C(=O)NCCP(=O)(O)O)S(C)(=O)=O)nn(CC(F)(F)F)c23)c([C@H](Cc2cc(F)cc(F)c2)NC(=O)Cn2nc(C(F)(F)F)c3c2C(F)(F)[C@@H]2C[C@H]32)n1)S(C)(=O)=O [Compound 11, (2-(2-(N-(4-chloro-7-(2-((S)-1-(2-((3bS,4aR)-5,5-difluoro-3-(trifluoromethyl)-3b,4,4a,5-tetrahydro-1H-cyclopropa[3,4]cyclopenta[1,2-c]pyrazol-1-yl)acetamido)-2-(3,5-difluorophenyl)ethyl)-6-(3-methyl-3-(methylsulfonyl)but-1-yn-1-yl)pyridin-3-yl)-1-(2,2,2-trifluoroethyl)-1H-indazol-3-yl)methylsulfonamido)-2-oxoacetamido)ethyl)phosphonic acid] | 5 μM | 36 μM |

Next, values leading:

| pH 2 solubility | pH 7 solubility | SMILES |
| --- | --- | --- |
| 1/1 μM | 1/1 μM | C[C@@H](O)CN(C)C(=O)N(c1nn(CC(F)(F)F)c2c(-c3ccc(C#CC(C)(C)S(C)(=O)=O)nc3[C@H](Cc3cc(F)cc(F)c3)NC(=O)Cn3nc(C(F)(F)F)c4c3C(F)(F)[C@@H]3C[C@H]43)ccc(Cl)c12)S(C)(=O)=O [Compound 48, N—((S)-1-(3-(4-chloro-3-(N—(((R)-2-hydroxypropyl)(methyl)carbamoyl)methylsulfonamido)-1-(2,2,2-trifluoroethyl)-1H-indazol-7-yl)-6-(3-methyl-3-(methylsulfonyl)but-1-yn-1-yl)pyridin-2-yl)-2-(3,5-difluorophenyl)ethyl)-2-((3bS,4aR)-5,5-difluoro-3-(trifluoromethyl)-3b,4,4a,5-tetrahydro-1H-cyclopropa[3,4]cyclopenta[1,2-c]pyrazol-1-yl)acetamide] |
| 57 μM | 6 μM | CC(C)(C#Cc1ccc(-c2ccc(Cl)c3c(N(C(=O)CN4CCN(C(=N)N)CC4)S(C)(=O)=O)nn(CC(F)(F)F)c23)c([C@H](Cc2cc(F)cc(F)c2)NC(=O)Cn2nc(C(F)(F)F)c3c2C(F)(F)[C@@H]2C[C@H]32)n1)S(C)(=O)=O [Compound 8, 2-(4-carbamimidoylpiperazin-1-yl)-N-(4-chloro-7-(2-((S)-1-(2-((3bS,4aR)-5,5-difluoro-3-(trifluoromethyl)-3b,4,4a,5-tetrahydro-1H-cyclopropa[3,4]cyclopenta[1,2-c]pyrazol-1-yl)acetamido)-2-(3,5-difluorophenyl)ethyl)-6-(3-methyl-3-(methylsulfonyl)but-1-yn-1-yl)pyridin-3-yl)-1-(2,2,2-trifluoroethyl)-1H-indazol-3-yl)-N-(methylsulfonyl)acetamide] |
| 1 μM | 14 μM | C[C@@H](CNC(=O)N(c1nn(CC(F)(F)F)c2c(-c3ccc(C#CC(C)(C)S(C)(=O)=O)nc3[C@H](Cc3cc(F)cc(F)c3)NC(=O)Cn3nc(C(F)(F)F)c4c3C(F)(F)[C@@H]3C[C@H]43)ccc(Cl)c12)S(C)(=O)=O)OP(=O)(O)O [Compound 35, (S)-1-(3-(4-chloro-7-(2-((S)-1-(2-((3bS,4aR)-5,5-difluoro-3-(trifluoromethyl)-3b,4,4a,5-tetrahydro-1H-cyclopropa[3,4]cyclopenta[1,2-c]pyrazol-1-yl)acetamido)-2-(3,5-difluorophenyl)ethyl)-6-(3-methyl-3-(methylsulfonyl)but-1-yn-1-yl)pyridin-3-yl)-1-(2,2,2-trifluoroethyl)-1H-indazol-3-yl)-3-(methylsulfonyl)ureido)propan-2-yl dihydrogen phosphate] |
| 1/1 μM | 1/1 μM | CC(C)(C#Cc1ccc(-c2ccc(Cl)c3c(N(C(=O)O[C@@H](CC(=O)O)C(=O)O)S(C)(=O)=O)nn(CC(F)(F)F)c23)c([C@H](Cc2cc(F)cc(F)c2)NC(=O)Cn2nc(C(F)(F)F)c3c2C(F)(F)[C@@H]2C[C@H]32)n1)S(C)(=O)=O [Compound 119, (S)-2-(((4-chloro-7-(2-((S)-1-(2-((3bS,4aR)-5,5-difluoro-3-(trifluoromethyl)-3b,4,4a,5-tetrahydro-1H-cyclopropa[3,4]cyclopenta[1,2-c]pyrazol-1-yl)acetamido)-2-(3,5-difluorophenyl)ethyl)-6-(3-methyl-3-(methylsulfonyl)but-1-yn-1-yl)pyridin-3-yl)-1-(2,2,2-trifluoroethyl)-1H-indazol-3-yl)(methylsulfonyl)carbamoyl)oxy)succinic acid] |
| 5 μM | 1 μM | CC(C)(C#Cc1ccc(-c2ccc(Cl)c3c(N(C(=O)O[C@H]4C[C@H](NC(=N)N)C4)S(C)(=O)=O)nn(CC(F)(F)F)c23)c([C@H](Cc2cc(F)cc(F)c2)NC(=O)Cn2nc(C(F)(F)F)c3c2C(F)(F)[C@@H]2C[C@H]32)n1)S(C)(=O)=O [Compound 128, trans-3-guanidinocyclobutyl (4-chloro-7-(2-((S)-1-(2-((3bS,4aR)-5,5-difluoro-3-(trifluoromethyl)-3b,4,4a,5-tetrahydro-1H-cyclopropa[3,4]cyclopenta[1,2-c]pyrazol-1-yl)acetamido)-2-(3,5-difluorophenyl)ethyl)-6-(3-methyl-3-(methylsulfonyl)but-1-yn-1-yl)pyridin-3-yl)-1-(2,2,2-trifluoroethyl)-1H-indazol-3-yl)(methylsulfonyl)carbamate] |
| 1 μM | 2 μM | CN(CCO)C(=O)N(c1nn(CC(F)(F)F)c2c(-c3ccc(C#CC(C)(C)S(C)(=O)=O)nc3[C@H](Cc3cc(F)cc(F)c3)NC(=O)Cn3nc(C(F)(F)F)c4c3C(F)(F)[C@@H]3C[C@H]43)ccc(Cl)c12)S(C)(=O)=O [Compound 50, N—((S)-1-(3-(4-chloro-3-(N-((2-hydroxyethyl)(methyl)carbamoyl)methylsulfonamido)-1-(2,2,2-trifluoroethyl)-1H-indazol-7-yl)-6-(3-methyl-3-(methylsulfonyl)but-1-yn-1-yl)pyridin-2-yl)-2-(3,5-difluorophenyl)ethyl)-2-((3bS,4aR)-5,5-difluoro-3-(trifluoromethyl)-3b,4,4a,5-tetrahydro-1H-cyclopropa[3,4]cyclopenta[1,2-c]pyrazol-1-yl)acetamide] |
| 59 μM | 14 μM | CN(CCCN)C(=O)N(c1nn(CC(F)(F)F)c2c(-c3ccc(C#CC(C)(C)S(C)(=O)=O)nc3[C@H](Cc3cc(F)cc(F)c3)NC(=O)Cn3nc(C(F)(F)F)c4c3C(F)(F)[C@@H]3C[C@H]43)ccc(Cl)c12)S(C)(=O)=O [Compound 79, N—((S)-1-(3-(3-(N-((3-aminopropyl)(methyl)carbamoyl)methylsulfonamido)-4-chloro-1-(2,2,2-trifluoroethyl)-1H-indazol-7-yl)-6-(3-methyl-3-(methylsulfonyl)but-1-yn-1-yl)pyridin-2-yl)-2-(3,5-difluorophenyl)ethyl)-2-((3bS,4aR)-5,5-difluoro-3-(trifluoromethyl)-3b,4,4a,5-tetrahydro-1H-cyclopropa[3,4]cyclopenta[1,2-c]pyrazol-1-yl)acetamide] |
